Measured values from patent publication US9511045B2 (UNIVERSITE D'AUVERGNE CLERMONT I, priority 2010, dated 2016).

System: Male Sprague-Dawley rats
Settings: 72 hours after IP injection of oxaliplatin
Experimental: Male Sprague-Dawley rats (Charles River Lab, France), weighing 175 to 200 grams, were placed in a cage with food and water ad libitum, in a temperature-controlled environment at 22° C. with a 12 h/12 h day/night cycle. The experiments were conducted under blind conditions in a calm room by the same experimenter, while taking care to comply with the regulations on animal experimentation.
This low-temperature immersion test made it possible to measure the hypersensitivity to cold in the animals. The bottom third of the rat's tail was immersed in a temperature-controlled bath 10° C. until it was removed or until the “cut-off” set at 30 seconds (Necker and Hellon. 1978 Pain. 4: 231-242).
The experimental data was analyzed using the software program Sigma STAT, version 3.0 for Windows (STAT32 Software Inc., San Diego, Calif.). The kinetics of the reaction times to the temperature-based stimulation were analyzed using a two-factor variance analysis followed by a multiple comparison test to study the change over time. […] The significance threshold was P<0.05.

**Q.** Which “effect on cold sensitivity threshold (10° C.)” value (FIG. 1) does the source give for O=C(O)C(=O)O.[NH-][C@@H]1CCCC[C@H]1[NH-].[Pt+2] [oxaliplatin] here?
**A.** reduced the cold sensitivity threshold

**Q.** And the “time after which the rat removed its tail” value (tail immersed in water at 10° C., untreated rat around 12 seconds, cut-off 30 seconds)?
**A.** 7 s
